Experimental data from patent EP1420018A1, “Pyrido[1,2-a]benzimidazole derivatives useful in treating central nervous system disorders” (Ortho-McNeil Pharmaceutical, Inc., priority 1996, dated 1998).
Structures can show the parent of a compound that is named as a salt. Where two headings read alike, the source gives them in different places.

What was measured:
[1] = tested on: Anxiety in the Adult Male Rat; assay: Suppression of Anxiety in the Adult Male Rat (rat conflict test); format: in vivo, rats; details: Rattus norvegicus, rat
Procedure: Assay to Measure the Suppression of Anxiety in the Adult Male Rat
Male rats were deprived of water for 48 hours and were deprived of food for 24 hours prior to testing. After the first 24 hours of water deprivation, they were placed in the conflict chamber for a training period; wherein, they were allowed 200 unpunished licks from a bottle containing tap water. The experiment was run the next day. At the expected time of peak activity, the animals were placed in the chamber and allowed access to tap water. […] Their first lick initiates a 3-min test session. Subsequently, every 20th lick was punished by a 0.2-s shock delivered via the stainless-steel drinking-tube.
The Wilcoxon rank-sum test (Mann-Whitney U-test) was used to test for an increase (p<0.05, 1-tailed) in the median number of shocks in drug-treated groups, compared to a concurrently run vehicle-treated group. The biological assay is considered to be valid if the effects of a known anxiolytic (positive control) are detected, within the same experiment.

[2] = biological target: benzodiazepine site of the GABA-A receptor; assay: Benzodiazepine Receptor Binding Assay (inhibition of 3H-flunitrazepam binding); details: read-out: GABAA Receptor Binding IC50
[3] = tested on: metrazol-induced convulsions; assay: Suppression of Metrazol-Induced Convulsions in Adult Male Mice; format: in vivo; details: Mus musculus, ip, mouse
Procedure: Assay to Determine the Suppression of Metrazol-Induced Convulsions in Adult Male Mice
Male CD1 mice, were fasted at least 16 hours, were divided into equal groups and test compounds or vehicle were administered parenterally. Water was not withheld except during the period of observations. […] Metrazol was dissolved in 0.9% sodium chloride solution, and its dose volume was 10 ml/kg. Animals were housed individually for observation of clonic convulsions, tonic convulsions and death for a period of 30 min. […] The biological assay was considered to be valid if the effects of a known anticonvulsant (positive control) were detected, within the same experiment. Activity was reported as percent reduction of clonic convulsions from the vehicle group.

[4] = tested on: metrazol-induced convulsions; assay: as above; format: in vivo; details: Mus musculus, po, mouse
[5] = po, po, read-out: Rat Conflict (MED, mg/kg) po
[6] = ip, ip, read-out: Rat Conflict (MED, mg/kg) ip

| Structure (SMILES) | minimal effective dose [1, 5] [mg/kg] | IC50 [2] [µM] | ED50 [3] [mg/kg] | ED50 [4] [mg/kg] | minimal effective dose [1, 6] [mg/kg] |
| --- | --- | --- | --- | --- | --- |
| O=C1CCN2C(=C1C(=O)Nc1ccccc1F)N(CCNC(=O)c1ccccc1)c1cc(F)ccc12 [Compound 46] | ~10 | 0.0081 | 1 | 30 |  |
| O=C1CCN2C(=C1C(=O)Nc1ccccc1F)N(CCNS(=O)(=O)c1cccs1)c1cc(F)ccc12 [Compound 47] |  | 0.0137 | 1 | 30 | > 10 |
| O=C1CCN2C(=C1C(=O)Nc1ccccc1F)N(CCNS(=O)(=O)C(F)(F)F)c1cc(F)ccc12 [Compound 48, 7-Fluoro-1,2-dihydro-5-[2-(trifluoromethylsulfonamido)ethyl]-3-oxo-N-(2-fluorophenyl)pyrido[1,2-a]benzimidazole-4-carboxamide] | 10 | 0.0302 | ≤ 1 | < 30 |  |
| CN(C)CCN1C2=C(C(=O)Nc3cccs3)C(=O)CCN2c2ccc(F)cc21 [Compound 49] | ~10 | 0.152 | 3 | ~5 | > 10 |
| CS(=O)(=O)NCCN1C2=C(C(=O)Nc3ccccc3F)C(=O)CCN2c2ccc(F)cc21 [Compound 50] |  | 0.0077 | 1 | < 30 | > 10 |
| O=C1CCN2C(=C1C(=O)Nc1ccccc1F)N(CCNC(=O)C(F)(F)F)c1cc(F)ccc12 [Compound 51] | > 10 | 0.00051 | 0.3 | 1 | ~10 |
| COCCNCCN1C2=C(C(=O)Nc3ccccc3F)C(=O)CCN2c2ccc(F)cc21 [Compound 52] | 10 | 0.00742 | 1 | 1 | ~10 |
| CC(=O)NCCN1C2=C(C(=O)Nc3ccccc3F)C(=O)CCN2c2ccc(F)cc21 [Compound 53] |  | 0.00547 | 7 | 30 | > 10 |
| CN(C)CCN1C2=C(C(=O)Nc3c(F)cc(F)cc3F)C(=O)CCN2c2ccc(F)cc21 [Compound 54] |  | 0.208 | 10 | > 30 | > 10 |
| CN(C)CCN1C2=C(C(=O)Nc3ccc(F)cc3F)C(=O)CCN2c2ccc(F)cc21 [Compound 55] | 3 | 0.0318 | 1 | 1 | < 10 |
| COCCN(CCN1C2=C(C(=O)Nc3ccccc3F)C(=O)CCN2c2ccc(F)cc21)Cc1ccccc1 [Compound 56] |  | 0.00799 | 1 | ~10 | > 10 |
| NCCN1C2=C(C(=O)Nc3ccccc3F)C(=O)CCN2c2ccc(F)cc21 [Compound 57] | 10 | 0.00513 | 0.3 | 10 | ~10 |
| CC(C)(C)OC(=O)NCCN1C2=C(C(=O)Nc3ccccc3F)C(=O)CCN2c2ccc(F)cc21 [Compound 58] | > 10 | 0.00054 | < 1 | < 30 | ≤ 10 |
| CNCCN1C2=C(C(=O)Nc3ccccc3F)C(=O)CCN2c2ccc(F)cc21 [Compound 59, 7-Fluoro-1,2-dihydro-5-[2-(methylamino)ethyl]-3-oxo-N-(2-fluorophenyl)pyrido[1,2-a]benzimidazole-4-carboxamide hydrochloride hydrate (4:4:5)] | 1 | 0.016 | 3 | 10 | 10 |
| O=C(CN1C2=C(C(=O)Nc3ccccc3F)C(=O)CCN2c2ccc(F)cc21)Nc1ccccc1F [Compound 61, 7-Fluoro-1,2-dihydro-5-[N-(2-fluorophenyl)-2-acetamido]-3-oxo-N-(2-fluorophenyl)pyrido[1,2-a]benzimidazole-4-carboxamide] |  | 0.00632 | < 1 | 30 | > 10 |
| CN(CCN1C2=C(C(=O)Nc3ccccc3F)C(=O)CCN2c2ccc(F)cc21)Cc1ccc(F)cc1 [Compound 62] | > 10 | 0.00769 | 3 | 30 | < 10 |
| O=C1CCN2C(=C1C(=O)Nc1ccccc1F)N(CCN(Cc1ccccc1)Cc1ccccc1)c1cc(F)ccc12 [Compound 64] |  | 0.00302 | 3 | > 30 | > 10 |
| CN(CCN1C2=C(C(=O)Nc3c(F)cccc3F)C(=O)CCN2c2ccc(F)cc21)Cc1ccc(F)cc1 [Compound 65] |  | 0.011 | > 10 | > 30 | > 10 |

| Structure (SMILES) | minimal effective dose [1, 5] [mg/kg] | IC50 [2] [µM] | ED50 [3] [mg/kg] | ED50 [4] [mg/kg] | minimal effective dose [1, 6] [mg/kg] |
| --- | --- | --- | --- | --- | --- |
| CN(C)CCCN1C2=C(C(=O)Nc3c(F)cccc3F)C(=O)CCN2c2ccc(F)cc21 [Compound 66] |  | 0.0837 | > 30 | > 10 | > 10 |
| CN(C)CCCN1C2=C(C(=O)Nc3ccccc3F)C(=O)CCN2c2ccc(F)cc21 [Compound 67] | > 10 | 0.00329 | 3 | 30 | 10 |
| CC(C)N(CCN1C2=C(C(=O)Nc3c(F)cccc3F)C(=O)CCN2c2ccc(F)cc21)C(C)C [Compound 68] |  | 0.0446 | > 10 | > 30 | 10 |
| CC(C)N(CCN1C2=C(C(=O)Nc3ccccc3F)C(=O)CCN2c2ccc(F)cc21)C(C)C [Compound 69] |  | 0.0784 | 1 | > 30 | > 10 |
| CCN(CC)CCN1C2=C(C(=O)Nc3c(F)cccc3F)C(=O)CCN2c2ccc(F)cc21 [Compound 70] |  | 0.267 | > 10 | > 30 | > 10 |
| CCN(CC)CCN1C2=C(C(=O)Nc3ccccc3F)C(=O)CCN2c2ccc(F)cc21 [Compound 71] | > 10 | 0.0745 | 2 | 10 | < 10 |
| CN(C)CCN1C2=C(C(=O)Nc3ccncc3)C(=O)CCN2c2ccccc21 [Compound 72] |  | 3.84 | > 10 | > 30 | > 10 |
| CN(C)CCN1C2=C(C(=O)Nc3c(F)cccc3F)C(=O)CCN2c2ccc(F)cc21 [Compound 73] |  | 0.0321 | > 10 | > 30 | > 10 |
| CN(C)CCN1C2=C(C(=O)Nc3ccccc3F)C(=O)CCN2c2ccc(F)cc21 [Compound 74, 7-Fluoro-1,2-dihydro-5-(2-dimethylaminoethyl)-3-oxo-N-(2-fluorophenyl)pyrido[1,2-a]benzimidazole-4-carboxamide hydrochloride hydrate (4:4:1)] | 3 | 0.0499 | 0.5 | < 3 | < 10 |
| O=C1CCN2C(=C1C(=O)Nc1ccccc1F)N(CCNC(=O)c1cccc(C(F)(F)F)c1)c1cc(F)ccc12 [Compound 75] | > 10 | 0.0095 | > 1 | > 30 |  |
| O=C1CCN2C(=C1C(=O)Nc1ccccc1F)N(CCNC(=O)c1ccccc1C(F)(F)F)c1cc(F)ccc12 [Compound 76] | > 10 | 0.0409 | > 1 | > 30 |  |
| N#CCN1C2=C(C(=O)NC3CC3)C(=O)CCN2c2ccc(F)cc21 [Compound 77] | > 10 | 0.00086 | < 1 | > 30 |  |
| N#CCN1C2=C(C(=O)NC3CCCCC3)C(=O)CCN2c2ccc(F)cc21 [Compound 78] | > 10 | 0.03 | > 1 | > 30 |  |
| CC(C)NC(=O)NCCN1C2=C(C(=O)Nc3ccccc3F)C(=O)CCN2c2ccc(F)cc21 [Compound 79] | > 10 | 0.0105 | > 1 | > 30 |  |
| CC(C)(C)OC(=O)N1CCN(CCN2C3=C(C(=O)Nc4ccccc4F)C(=O)CCN3c3ccc(F)cc32)CC1 [Compound 80] | > 10 | 0.0037 | > 1 | > 30 |  |
| O=C1CCN2C(=C1C(=O)Nc1ccccc1F)N(CCN1CCNCC1)c1cc(F)ccc12 [Compound 81] | > 10 | 0.0127 | > 1 | > 30 |  |
| CN(C)c1ccc(CCN2C3=C(C(=O)Nc4c(F)cccc4F)C(=O)CCN3c3ccc(F)cc32)cc1 [Compound 83] |  | 0.0362 | 3 | < 30 | > 10 |
| CN(C)c1ccc(CCN2C3=C(C(=O)Nc4ccccc4F)C(=O)CCN3c3ccc(F)cc32)cc1 [Compound 84] |  | 0.00852 | 1 | < 30 | > 10 |
